Laboratory results from patent EP0335545B2, “Pharmaceutical formulations for parenteral use” (UNIVERSITY OF FLORIDA, priority 1988, dated 1989).
In brackets after ≈: the same amount, converted by molar mass.

Experiments:
physchem [1] = assay type: physicochemical
Experimental: The retention time was 5.2 min. Other compounds were assayed spectrophotometrically.

physchem [2] = conditions: 50% w/w aqueous hpcd
Experimental: An excess of E2-CDS was sonicated with an aqueous solution of the appropriate solubilizing agent for 30 minutes. The suspension was then centrifuged, filtered through 0.45 µm polyvinylidene difluoride (Millex-HV4, Millipore®) membranes and analyzed by HPLC. […] An estimation of the bulk equilibrium constant was obtained by correlating the millimolarity of E2-CDS solubilized and the millimolarity of the cyclodextrin added. This latter value was calculated using the average molecular weight of the isomeric mixture determined by mass spectroscopy. The solubilizing effect of a 50% w/w solution of HPCD was also examined for a series of steroids and dihydropyridines (CDS). These studies were carried out in a similar manner to those previously described.
For the CDS, the wavelength monitored was 360 nm while for estrogen 220 nm was used.
Separation was achieved on an Analytical Sciences, Inc. (ASI) 10 µm particle size, C18 reversed phase 30 cm x 3.9 mm i.d. analytical column. The flow rate was 1 mL/min, the compounds were detected at 360 nm and in all determinations the temperature was ambient. […] For the GABA-CDS1, a mobile phase consisting of 50:1:1:48 of the same components was required. […] Other compounds were assayed spectrophotometrically.

[3] = Maximum concentrations of selected CDS in varying concentrations of selected cyclodextrins; assay type: physicochemical
Experimental: In further testing, maximum concentrations of selected CDS in varying concentrations of selected cyclodextrins were determined. The concentration of E2-CDS (mg/mL) was as follows: […]

Question: Which results are given for `CN1C=CCC(C(=O)O[C@H]2CC[C@H]3[C@@H]4CCc5cc(O)ccc5[C@H]4CC[C@]23C)=C1` [Example E2-CDS, 3-Hydroxy-17β-[(1-methyl-1,4-dihydropyridin-3-yl)carbonyl]oxyestra-1,3,5(10)-triene]?
Answer: increase in incorporation with the lower ASDS material (physchem [1]): 15%; increase in solubility over the solubility in water (physchem [1]): 150,000 fold; slope of millimolarity of E2-CDS solubilized versus millimolarity of HPCD added (estimation of bulk stability of the complex) (physchem [1]): 0.2; solubility (physchem [1]; 10 mm aqueous β-cyclodextrin, Maximum Solubility): 27 µg/mL (≈ 0.0686 mM); solubility (physchem [1]; 10 mm aqueous γ-cyclodextrin, Maximum Solubility): 22 µg/mL (≈ 0.0559 mM); solubility (physchem [1]; 50 mm aqueous α-cyclodextrin, Maximum Solubility): 5 µg/mL (≈ 0.0127 mM); solubility (physchem [1]; 62.5% w/v aqueous hpcd, Maximum Solubility): 30200 µg/mL (≈ 76.7 mM); solubility (physchem [1]; water, Maximum Solubility (solubility of E2-CDS in water)): 0.2 µg/mL (≈ 0.000508 mM); solubility (physchem [1]; water, water solubility): 0.2 µg/mL (≈ 0.000508 mM); solubility (physchem [2]): 22000 µg/mL (≈ 55.9 mM); solubility ([3]; 20% hebcd): 3090 µg/mL (≈ 7.85 mM); solubility ([3]; 20% hpcd): 6730 µg/mL (≈ 17.1 mM); solubility ([3]; 40% hebcd): 6070 µg/mL (≈ 15.4 mM); solubility ([3]; 40% hpcd): 11900 µg/mL (≈ 30.2 mM); solubility ([3]; 40% hpgcd): 4000 µg/mL (≈ 10.2 mM)
